The source made the active and inactive calls.
Experiments:
[1] = target: Delta-type opioid receptor (Homo sapiens, UniProt P41143); experiment: SAR Analysis of Antagonists of the DOR Receptor using an Image-Based Assay - Set 3. [Related pubchem assays (depositor defined):AID1777, AID1785]; format: functional;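 also: U2OS cells expressing DOR1 and beta-arrestin GFP stimulated with 100 nM SNC80; imaging of GFP-tagged beta-arrestin moving into spots after receptor activation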
[2] = target: Mu-type opioid receptor (Homo sapiens, UniProt P35372); experiment: SAR Analysis of Antagonists of the MOR Receptor using an Image-Based Assay - Set 3. [Related pubchem assays (depositor defined):AID1777, AID1785, AID1786, AID1966, AID2133, AID2136, AID2284, AID2285, AID2420]; format: functional
Chain of Mu-type opioid receptor (P35372 whole entry): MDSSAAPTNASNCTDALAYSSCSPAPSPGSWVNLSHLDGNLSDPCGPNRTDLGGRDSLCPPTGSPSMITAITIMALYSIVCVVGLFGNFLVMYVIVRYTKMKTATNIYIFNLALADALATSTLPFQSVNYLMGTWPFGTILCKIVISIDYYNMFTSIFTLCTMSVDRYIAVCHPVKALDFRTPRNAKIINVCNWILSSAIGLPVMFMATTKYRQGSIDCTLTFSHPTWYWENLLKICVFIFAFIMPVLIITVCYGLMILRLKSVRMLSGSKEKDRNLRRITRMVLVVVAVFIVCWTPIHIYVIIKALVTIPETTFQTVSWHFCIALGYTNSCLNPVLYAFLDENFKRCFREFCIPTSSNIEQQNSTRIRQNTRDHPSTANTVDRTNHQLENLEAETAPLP

[3] = Vero E6 cell cytotoxicity, dose response, cytotoxicity control for non-replicating M. tuberculosis project, secondary assay (AID 492998); format: functional, VeroE6; details: Vero C1008
[4] = HepG2 cell cytotoxicity, dose response, cytotoxicity control for non-replicating M. tuberculosis project (AID 489018); format: functional; details: Mycobacterium tuberculosis
[5] = system: HEK293; experiment: inhibition of NOD1-driven NF-kB reporter – cell-based, luminescence, uHTS, primary screen (AID 1578); format: functional; details: Homo sapiens
[6] = system: HEK293; experiment: cells; format: functional, cell-based; details: Homo sapiens
[7] = system: HEK293; experiment: cells; format: functional, cell-based; details: Homo sapiens; remark: listed apart in the source
[8] = THP-1 cell cytotoxicity, dose response, cytotoxicity control for non-replicating M. tuberculosis project (AID 489025); format: functional
[9] = cells; format: functional
[10] = NIH3T3 cell viability loss – ATP luminescence, mouse fibroblasts, counter-screen, dose response (AID 2010); format: functional, cell-based;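 also: cells exposed to compound for about 90 hours before reading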
[11] = target: Neurotensin receptor type 1 (Homo sapiens, UniProt P30989); format: functional;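 also: Image-based confirmatory dose-response assay measuring agonist activity at NTR1; NTR1-expressing U2OS osteosarcoma cells imaged for beta-arrestin GFP spot formation; agonist potency where compounds increase beta-arrestin recruitment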
Chain of Neurotensin receptor type 1 (P30989 whole entry, the tested form may be a part): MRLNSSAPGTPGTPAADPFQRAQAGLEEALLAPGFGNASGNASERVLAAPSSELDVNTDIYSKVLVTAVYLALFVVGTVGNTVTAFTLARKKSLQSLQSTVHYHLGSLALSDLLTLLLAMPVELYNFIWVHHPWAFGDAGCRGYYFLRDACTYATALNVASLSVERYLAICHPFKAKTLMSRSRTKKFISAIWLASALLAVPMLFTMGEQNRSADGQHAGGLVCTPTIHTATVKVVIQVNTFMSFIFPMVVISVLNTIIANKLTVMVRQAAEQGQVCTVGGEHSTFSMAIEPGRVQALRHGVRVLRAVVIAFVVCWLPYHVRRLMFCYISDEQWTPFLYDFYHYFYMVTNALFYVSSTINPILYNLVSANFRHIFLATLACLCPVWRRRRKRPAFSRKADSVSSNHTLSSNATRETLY

[12] = HIV-1 AD8 envelope cell-cell fusion blockers – cherry-pick, dose response (AID 652062); format: functional, cell-based;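 also: luciferase signal from cell-cell fusion driven by HIV-1 clade B AD8 Env; potency is for inhibitors of fusion seen as a drop in luminescence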
[13] = target: G-protein coupled receptor 55 (Homo sapiens, UniProt Q9Y2T6); experiment: inhibition of LPI-stimulated GPR55 beta-arrestin translocation – imaging, U2OS, beta-arrestin-GFP, LPI agonist, primary screen (AID 2013); format: functional;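 also: antagonist potency measured as reduced agonist-driven arrestin aggregation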
Chain of G-protein coupled receptor 55 (Q9Y2T6 whole entry, the tested form may be a part): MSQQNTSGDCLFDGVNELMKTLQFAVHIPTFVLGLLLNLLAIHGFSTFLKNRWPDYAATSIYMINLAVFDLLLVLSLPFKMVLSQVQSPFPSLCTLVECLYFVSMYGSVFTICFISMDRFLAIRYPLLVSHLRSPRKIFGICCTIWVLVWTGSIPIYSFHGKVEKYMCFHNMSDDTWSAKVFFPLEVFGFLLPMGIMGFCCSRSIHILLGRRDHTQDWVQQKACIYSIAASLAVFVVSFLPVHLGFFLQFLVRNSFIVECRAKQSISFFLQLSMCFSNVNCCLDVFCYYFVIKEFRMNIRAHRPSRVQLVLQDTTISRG

[14] = blockers of HIV-1 ZM109 envelope-driven cell-cell fusion – HeLa effector, CEM target cells, luciferase, cherry-pick, dose response (AID 652058); format: functional, cell-based;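 also: luciferase signal from HIV-1 Env mediated cell-cell fusion of effector and target cells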
[15] = viability loss in CEM21 cells – cell-based, CellTiter-Glo luminescence, cherry-picked, cytotoxicity control for viral fusion inhibitor project, dose response (AID 652042); format: functional;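 also: potency for signal decrease meaning cytotoxicity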
[16] = off-target signal loss in HeLa-CEM21 co-culture – HeLa F-luc CTL cells, cherry-picked, counter-screen for HIV-1 Env fusion inhibitor project, dose response (AID 652040); format: functional, cell-based;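 also: potency for signal decrease marking cytotoxic or nonspecific inhibition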
[17] = blockers of HIV-1 envelope-mediated cell-cell fusion – cherry-pick, dose response (AID 652057); format: functional, cell-based
[18] = system: INS1; experiment: INS-1E survival protection against cytokine death – cell-based, luminescence, retest, dose response (AID 449756); format: functional; details: Rattus norvegicus;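 also: cell death triggered by IL-1 beta plus TNF-alpha plus IFN-gamma mixture; protective hits raise ATP signal compared with cytokine alone wells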
[19] = Luminescence Cell-Based Dose Retest to Confirm Inhibitors of Cancer Stem Cells. [Related pubchem assays (depositor defined):AID2717, AID2721]; format: functional; details: Homo sapiens
[20] = Trypanosoma cruzi growth suppression in host cells – NIH3T3 host cells, beta-gal luminescence, confirmation (AID 2044); format: functional, cell-based;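 also: intracellular parasites grown in NIH/3T3 mouse fibroblasts as host cells; luminescent beta-galactosidase reporter signal from transgenic T. cruzi replicating inside host cells; inhibitors lower the luminescence signal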
[21] = target: T1, Streptokinase A (Streptococcus pyogenes serotype M1, UniProt P10520); experiment: viability-normalized secreted streptokinase activity reduction – plasminogen activation absorbance, OD405, dose response (AID 1914); format: functional, Streptococcus pyogenes M1 GAS;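 also: secreted streptokinase activity via plasminogen activation per viability signal from cell pellet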
T1 sequence (P10520 whole entry): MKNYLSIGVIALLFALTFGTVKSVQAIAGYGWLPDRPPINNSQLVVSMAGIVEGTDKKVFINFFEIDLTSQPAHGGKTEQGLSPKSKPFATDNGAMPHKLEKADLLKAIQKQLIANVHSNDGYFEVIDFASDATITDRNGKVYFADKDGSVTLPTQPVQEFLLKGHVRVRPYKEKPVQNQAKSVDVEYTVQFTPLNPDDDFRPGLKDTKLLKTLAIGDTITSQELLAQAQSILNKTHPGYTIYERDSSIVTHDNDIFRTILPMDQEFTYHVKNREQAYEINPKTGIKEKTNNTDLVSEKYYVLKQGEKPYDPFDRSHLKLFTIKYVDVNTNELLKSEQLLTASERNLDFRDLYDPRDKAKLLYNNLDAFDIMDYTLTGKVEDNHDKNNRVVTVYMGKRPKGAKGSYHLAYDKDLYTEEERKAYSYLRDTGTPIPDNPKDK

[22] = target: E3 ubiquitin-protein ligase Mdm2/Protein Mdm4 (Homo sapiens, UniProt O15151+Q00987); experiment: disruption of Mdm2/MdmX protein binding – luminescence detection, dose response (AID 504593); format: functional
Chain of E3 ubiquitin-protein ligase Mdm2/Protein Mdm4 (Q00987 whole entry): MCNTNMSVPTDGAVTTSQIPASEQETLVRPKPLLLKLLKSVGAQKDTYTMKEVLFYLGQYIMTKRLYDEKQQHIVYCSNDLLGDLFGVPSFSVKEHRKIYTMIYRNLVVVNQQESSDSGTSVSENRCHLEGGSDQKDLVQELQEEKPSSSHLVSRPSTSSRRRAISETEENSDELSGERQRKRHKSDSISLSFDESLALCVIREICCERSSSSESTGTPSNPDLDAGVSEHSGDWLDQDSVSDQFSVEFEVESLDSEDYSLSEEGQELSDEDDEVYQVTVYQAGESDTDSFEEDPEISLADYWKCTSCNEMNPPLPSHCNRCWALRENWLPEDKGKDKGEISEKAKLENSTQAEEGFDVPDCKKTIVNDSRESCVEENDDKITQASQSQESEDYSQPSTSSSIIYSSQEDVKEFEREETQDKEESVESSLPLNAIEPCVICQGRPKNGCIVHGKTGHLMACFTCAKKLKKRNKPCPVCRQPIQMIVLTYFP
Chain of E3 ubiquitin-protein ligase Mdm2/Protein Mdm4 (O15151 whole entry): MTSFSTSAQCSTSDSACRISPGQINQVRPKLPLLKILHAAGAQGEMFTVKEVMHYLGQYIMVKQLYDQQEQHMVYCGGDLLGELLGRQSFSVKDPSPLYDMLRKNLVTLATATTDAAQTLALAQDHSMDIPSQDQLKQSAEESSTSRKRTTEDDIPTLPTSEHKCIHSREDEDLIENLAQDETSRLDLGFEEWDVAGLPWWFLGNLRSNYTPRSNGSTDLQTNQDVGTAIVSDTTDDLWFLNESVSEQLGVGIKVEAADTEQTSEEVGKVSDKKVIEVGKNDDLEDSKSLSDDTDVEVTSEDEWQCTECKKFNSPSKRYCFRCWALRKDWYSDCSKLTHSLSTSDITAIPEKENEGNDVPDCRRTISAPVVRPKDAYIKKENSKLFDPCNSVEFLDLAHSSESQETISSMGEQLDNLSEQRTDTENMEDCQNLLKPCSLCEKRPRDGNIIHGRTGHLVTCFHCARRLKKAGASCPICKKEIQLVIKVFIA

[23] = system: Streptococcus sp. 'group A'; experiment: Streptococcus pyogenes SK(-)GAS viability under kanamycin – luminescence, BacTiterGlo, confirmation, counter-screen for streptokinase expression inhibitor project, dose response (AID 1900); format: functional, organism-based
[24] = system: Streptococcus; experiment: GAS UMAA2166 growth inhibition – luminescence, BacTiterGlo, counter-screen for streptokinase expression inhibitor project, dose response (AID 1915); format: functional, organism-based;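 also: potency for reduction of bacterial viability or growth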
[25] = target: T2, Short transient receptor potential channel 4 (Mus musculus, UniProt Q9QUQ5); experiment: block of DAMGO-driven TRPC4 calcium entry – cell-based, HEK293 TRPC4/mu-opioid, Fluo-4 calcium, dose response (AID 434942); format: functional;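 also: potency of inhibitors blocking the TRPC4 calcium response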
T2 sequence (Q9QUQ5 whole entry): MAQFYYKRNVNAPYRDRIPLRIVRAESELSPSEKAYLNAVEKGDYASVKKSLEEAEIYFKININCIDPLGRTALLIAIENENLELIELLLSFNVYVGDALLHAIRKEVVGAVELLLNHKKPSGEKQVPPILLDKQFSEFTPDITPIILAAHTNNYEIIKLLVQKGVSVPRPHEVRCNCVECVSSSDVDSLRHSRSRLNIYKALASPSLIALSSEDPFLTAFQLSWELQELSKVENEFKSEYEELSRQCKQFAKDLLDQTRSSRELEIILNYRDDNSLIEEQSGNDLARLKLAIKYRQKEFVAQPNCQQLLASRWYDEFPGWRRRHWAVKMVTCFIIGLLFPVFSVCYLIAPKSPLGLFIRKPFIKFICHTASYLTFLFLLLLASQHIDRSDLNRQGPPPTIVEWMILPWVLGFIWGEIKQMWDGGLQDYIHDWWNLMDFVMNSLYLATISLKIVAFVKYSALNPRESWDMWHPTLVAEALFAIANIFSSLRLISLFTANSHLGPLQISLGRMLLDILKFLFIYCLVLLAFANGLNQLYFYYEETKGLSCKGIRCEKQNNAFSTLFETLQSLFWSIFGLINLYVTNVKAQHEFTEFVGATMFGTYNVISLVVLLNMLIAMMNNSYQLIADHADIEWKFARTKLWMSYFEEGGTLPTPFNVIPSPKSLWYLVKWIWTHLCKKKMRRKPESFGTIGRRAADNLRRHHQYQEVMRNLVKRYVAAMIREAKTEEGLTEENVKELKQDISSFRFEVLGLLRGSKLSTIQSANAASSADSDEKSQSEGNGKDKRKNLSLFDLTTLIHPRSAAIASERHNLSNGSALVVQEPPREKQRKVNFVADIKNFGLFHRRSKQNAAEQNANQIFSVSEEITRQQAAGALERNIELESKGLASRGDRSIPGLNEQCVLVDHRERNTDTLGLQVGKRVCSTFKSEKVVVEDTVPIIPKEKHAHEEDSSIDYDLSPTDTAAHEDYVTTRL

[26] = target: T3, Heat shock factor protein 1 (Mus musculus, UniProt P38532); experiment: decrease of HSF1-responsive luciferase luminescence – cell-based, NIH3T3, dose retest, confirmation (AID 2382); format: functional;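 also: NIH3T3 fibroblasts with HSF1-driven luciferase reporter stressed by proteasome inhibitor MG132; luminescence from HSF1-driven luciferase expression after 8 hours of MG132 stress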
T3 sequence (P38532 whole entry): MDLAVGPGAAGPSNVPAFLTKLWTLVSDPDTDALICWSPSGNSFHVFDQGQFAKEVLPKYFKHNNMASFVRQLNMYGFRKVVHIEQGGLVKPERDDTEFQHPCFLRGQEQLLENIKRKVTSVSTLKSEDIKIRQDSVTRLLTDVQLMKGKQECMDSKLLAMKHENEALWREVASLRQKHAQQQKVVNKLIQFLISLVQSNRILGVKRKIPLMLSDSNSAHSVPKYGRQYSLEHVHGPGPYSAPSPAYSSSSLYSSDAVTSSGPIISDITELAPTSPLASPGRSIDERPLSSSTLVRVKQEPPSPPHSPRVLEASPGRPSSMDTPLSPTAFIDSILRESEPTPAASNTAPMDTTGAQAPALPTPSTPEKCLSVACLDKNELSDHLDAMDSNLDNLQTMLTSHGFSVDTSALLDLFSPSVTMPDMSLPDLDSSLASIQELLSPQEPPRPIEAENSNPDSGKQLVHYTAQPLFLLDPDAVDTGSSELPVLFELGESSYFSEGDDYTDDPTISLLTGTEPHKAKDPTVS

[27] = target: DNA dC->dU-editing enzyme APOBEC-3G (Homo sapiens, UniProt Q9HC16); experiment: Dose Response confirmation of small molecule APOBEC3G DNA Deaminase Inhibitors via a fluorescence-based single-stranded DNA deaminase assay. [Related pubchem assays (depositor defined):AID493012, AID493028]; format: functional
Chain of DNA dC->dU-editing enzyme APOBEC-3G (Q9HC16 whole entry): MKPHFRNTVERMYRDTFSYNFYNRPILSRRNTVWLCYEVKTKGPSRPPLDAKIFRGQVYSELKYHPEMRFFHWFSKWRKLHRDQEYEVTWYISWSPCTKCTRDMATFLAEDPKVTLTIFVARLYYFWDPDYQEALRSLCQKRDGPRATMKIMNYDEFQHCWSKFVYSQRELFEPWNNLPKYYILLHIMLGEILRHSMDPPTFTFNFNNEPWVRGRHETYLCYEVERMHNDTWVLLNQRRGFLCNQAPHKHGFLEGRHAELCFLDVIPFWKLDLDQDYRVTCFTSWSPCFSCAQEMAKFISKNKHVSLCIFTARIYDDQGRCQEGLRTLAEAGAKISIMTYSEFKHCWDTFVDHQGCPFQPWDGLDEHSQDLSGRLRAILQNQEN

[28] = target: DNA dC->dU-editing enzyme APOBEC-3A (Homo sapiens, UniProt P31941); experiment: A3A deaminase inhibition for selectivity – biochemical, dose response (AID 504722); format: functional
Chain of DNA dC->dU-editing enzyme APOBEC-3A (P31941 whole entry): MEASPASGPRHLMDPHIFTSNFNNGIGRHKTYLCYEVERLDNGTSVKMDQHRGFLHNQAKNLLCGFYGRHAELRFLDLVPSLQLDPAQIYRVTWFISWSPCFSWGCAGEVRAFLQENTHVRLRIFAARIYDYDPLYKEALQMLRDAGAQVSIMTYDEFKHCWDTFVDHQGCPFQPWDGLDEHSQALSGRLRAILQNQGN

[29] = blockade of melanocortin 4 receptor signaling – cell-based, plate reader, cherry pick, counter-screen for LGR2 antagonist project, dose response (AID 743444); format: functional;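 also: transfected HEK 293 cells stimulated with alpha-MSH peptide; potency of inhibitors of the alpha-MSH evoked signal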
[30] = HEK-293T viability loss after treatment – luminescence, T-cell screen hits, cytotoxicity control for TCR NF-kB inhibitor project, dose response (AID 489026); format: functional, cell-based;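 also: cells exposed to compound about 14 hours before the viability readout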
[31] = viability loss in HEK293 cells – cell-based, plate reader, cherry-picked samples, cytotoxicity control, dose response (AID 743446); format: functional
[32] = toxicity toward HepG2 liver cells – cell-based, plate reader, cherry-pick, antagonist series, cytotoxicity control, dose response (AID 743416); format: functional
[33] = A549 cell cytotoxicity, dose response, cytotoxicity control, plate reader, cherry-pick, antagonist series (AID 743412); format: functional, cell-based
[34] = blockers of bursicon-stimulated LGR2 cAMP reporter – cell-based, HEK293, CRE-luciferase reporter, cherry pick, set 2, dose response (AID 743343); format: functional;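 also: transfected cells were stimulated with diluted bursicon conditioned medium after compound addition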
[35] = target: Troponin, cardiac muscle (Homo sapiens, UniProt P19429+P45379+P63316); experiment: Fluorescence-based biochemical high throughput dose response assay for activators of the calcium sensitivity of cardiac Regulated Thin Filaments (RTF). [Related pubchem assays (depositor defined):AID493008, AID493018, AID504382, AID504383]; format: protein-complex assay
[36] = target: T4, Beta-lactamase (Pseudomonas aeruginosa, UniProt Q79MP6); experiment: inhibition of IMP-1 beta-lactamase activity – biochemical, epi-absorbance, selectivity assay for VIM-2 inhibitor project, dose response (AID 1920)
T4 sequence (Q79MP6 whole entry): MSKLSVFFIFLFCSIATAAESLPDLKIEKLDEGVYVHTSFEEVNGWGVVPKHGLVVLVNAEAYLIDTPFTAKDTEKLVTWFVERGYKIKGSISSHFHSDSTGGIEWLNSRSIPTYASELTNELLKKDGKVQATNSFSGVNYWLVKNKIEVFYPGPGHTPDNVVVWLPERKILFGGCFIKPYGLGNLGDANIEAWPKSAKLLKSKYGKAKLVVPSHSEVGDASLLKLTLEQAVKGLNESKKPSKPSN

[37] = target: T4, Beta-lactamase; experiment: […] counterscreen for selective VIM-2 inhibitors: dose response biochemical high throughput screening assay to identify inhibitors of IMP-1 metallo-beta-lactamase.
[38] = target: Beta-lactamase (Salmonella choleraesuis (strain SC-B67), UniProt Q5J463); experiment: Epi-absorbance-based counterscreen for selective VIM-2 inhibitors: dose response biochemical high throughput screening assay to identify inhibitors of TEM-1 serine-beta-lactamase.
Chain of Beta-lactamase (Salmonella choleraesuis (strain SC-B67), UniProt Q5J463) (Q5J463 whole entry): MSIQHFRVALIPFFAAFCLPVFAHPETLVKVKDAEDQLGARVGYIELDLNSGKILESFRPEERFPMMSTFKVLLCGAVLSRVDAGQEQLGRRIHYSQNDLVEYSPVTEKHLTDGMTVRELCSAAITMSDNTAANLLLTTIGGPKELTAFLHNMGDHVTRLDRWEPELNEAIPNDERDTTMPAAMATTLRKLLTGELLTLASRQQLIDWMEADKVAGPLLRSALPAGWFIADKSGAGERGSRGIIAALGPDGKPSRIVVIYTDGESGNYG

Chain of Delta-type opioid receptor (P41143 whole entry): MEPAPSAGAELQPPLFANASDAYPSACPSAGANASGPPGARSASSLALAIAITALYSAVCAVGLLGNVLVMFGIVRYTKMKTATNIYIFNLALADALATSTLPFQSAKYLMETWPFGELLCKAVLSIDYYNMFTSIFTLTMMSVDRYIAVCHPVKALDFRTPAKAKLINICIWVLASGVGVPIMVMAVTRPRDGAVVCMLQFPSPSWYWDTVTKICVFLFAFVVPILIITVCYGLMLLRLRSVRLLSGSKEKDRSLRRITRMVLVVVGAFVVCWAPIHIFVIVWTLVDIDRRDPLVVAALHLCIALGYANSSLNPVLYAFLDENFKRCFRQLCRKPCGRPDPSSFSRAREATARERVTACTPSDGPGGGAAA

Cc1ccc(S(=O)(=O)NCc2ccc(C(=O)NCCN(Cc3ccc(Br)cc3)C(C)C)cc2)cc1
IC50 [1]: > 32 µM (inactive) | IC50 [2]: > 32 µM (inactive)

CN(C)S(=O)(=O)Oc1ccc(C(=O)Nc2cccc(C(F)(F)F)c2)cc1
CC50 [3]: > 20 µM (active) | CC50 [4]: > 20 µM (active) | EC50 [5]: 10.9 µM (active) | IC50 [6]: 6.71 µM (active) | IC50 [7]: 12.1 µM (active) | CC50 [8]: > 40 µM (active)

CC(NCC(O)COCCC12CC3CC(CC(C3)C1)C2)c1ccccc1 (stereo not given)
IC50 [9]: 14.6 µM (active) | EC50 [10]: > 60 µM (not active) | EC50 [11]: 19.9 µM (active) | CC50 [3]: 13.7 µM (active) | AC50 [12]: 16.8 µM (active) | IC50 [13]: 3.25 µM (active) | AC50 [14]: 11.2 µM (active) | AC50 [15]: 13.3 µM (active) | CC50 [4]: 12.7 µM (active) | AC50 [16]: 6.93 µM (active) | CC50 [8]: 12.5 µM (active) | AC50 [17]: 3.45 µM (active) | AC50 [18]: 7.3 µM (active) | AC50 [19]: 6.14 µM (active) | EC50 [20]: 0.157 µM (active)

C/C(=N\Nc1cc(C)nc(-c2ccccc2O)n1)c1ccccc1O
EC50 [21]: 14 µM (active) | IC50 [22]: 6.71 µM (active) | EC50 [23]: 4.57 µM (active) | EC50 [24]: > 150 µM (not active)

Cc1ccc(OCc2cc(C(=O)N(C)CCc3nc4ccccc4[nH]3)no2)cc1C
EC50 [25]: 1.06 µM (active) | EC50 [26]: > 195 µM (not active)

Cc1cc(-c2nnc(S)n2/N=C/c2ccc(C)s2)[nH]n1
IC50 [27]: 2.28 µM (active) | IC50 [28]: > 100 µM (inactive)

O=c1oc2ccccc2cc1-c1cn(-c2ccccc2)c(S)n1
AC50 [29]: 0.259 µM (active) | IC50 [22]: 0.00374 µM (active) | IC50 [30]: > 80 µM (inactive) | EC50 [26]: < 0.16 µM (active) | AC50 [31]: 19.4 µM (active) | AC50 [32]: 19.4 µM (active) | AC50 [33]: 8.78 µM (active) | AC50 [34]: 0.316 µM (active)

CCC(/C=C1\Oc2ccc(OC)cc2N1C)=C\c1sc2ccccc2[n+]1CCCS(=O)(=O)[O-]
EC50 [35]: 0.853 µM (active)

Sc1nnc(-c2cccs2)n1C1CCCCC1
IC50 [36]: > 59.6 µM (inactive) | IC50 [37]: > 59.6 µM (inactive) | IC50 [38]: > 59.6 µM (inactive) | IC50 [27]: 4.59 µM (active) | IC50 [28]: > 100 µM (inactive)

From ChEMBL document CHEMBL1201862, “PubChem BioAssay data set” (2004)
